Experiment [1] deals with K56 receptor (mouse delta opioid receptor) (Mus musculus, UniProt P32300). Briefly: biochemical.
The target in experiment [2] is T1, delta opioid receptor of NG 108-15 cells (Mus musculus, UniProt P32300).
T1 construct: NG 108-15 cells, which express the delta opioid receptor naturally; endogenous in cells; host or cells: NG 108-15 cells (membranes)
Briefly: biochemical. It is filed as binding.

Molecules are shown by their SMILES.

Chain of K56 receptor (mouse delta opioid receptor) (P32300 whole entry): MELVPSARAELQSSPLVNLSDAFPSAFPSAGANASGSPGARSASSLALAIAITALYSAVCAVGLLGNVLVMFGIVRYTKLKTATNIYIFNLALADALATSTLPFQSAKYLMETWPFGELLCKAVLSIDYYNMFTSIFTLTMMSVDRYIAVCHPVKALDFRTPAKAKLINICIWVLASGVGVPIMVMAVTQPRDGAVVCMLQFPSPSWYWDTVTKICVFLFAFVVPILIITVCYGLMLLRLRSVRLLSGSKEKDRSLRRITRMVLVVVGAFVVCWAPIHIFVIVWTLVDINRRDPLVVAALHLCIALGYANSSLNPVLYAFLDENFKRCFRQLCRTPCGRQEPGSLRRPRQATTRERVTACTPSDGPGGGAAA
T1 sequence (P32300 whole entry): as above

The term Ki denotes the dissociation constant of the complex between target and ligand, obtained from inhibition or displacement. Low readings indicate higher affinity, high ones lower affinity. `CN1CC[C@]23CCCC[C@H]2[C@H]1Cc1ccc(O)cc13` [Levorphanol, levorphanol] registered a Ki in experiment [1] (inhibition constant Ki) of 20.9 nM.

With `CCC12CCN(CC3(O)CC3)C(Cc3ccc(O)cc31)C2(C)C` (stereo not shown) [Bremazocine, bremazocine], the Ki is 1.78 nM in experiment [2], 5.62 nM in experiment [1] (PKi Cos K56) and 5.7 nM in experiment [1] (inhibition constant Ki).
